According to US20260048062A1, “FUSED AMINO PYRIMIDINE COMPOUNDS FOR TREATMENT OF PSYCHOSIS AND PSYCHOTIC DISORDERS” (Ovid Therapeutics Inc., priority 2024, published 2026):

Test system: 18-20 Div hippocampal neurons
Assay: Gramicidin perforated patch clamp, EGABA in hippocampal neurons
Assay type: cell-based, Sprague Dawley
Experimental: Neuronal Cultures. Hippocampal neurons were prepared from Sprague Dawley E18 embryos and plated at 450,000 per dish and maintained at 37° C. in a humidified 5% CO2 incubator for 10-25 days before experimentation (Lee et al., Nat. Neurosci. 14, 736-743 (2011)).
At this developmental stage, GABAAR receptor activation leads to hyperpolarization, a phenomenon critically dependent upon KCC2 (Kontou et al., J Biol Chem, 100364 (2021)).
Neuronal Patch clamp assays. Neuronal cell culture recordings were performed in bath saline at 34° C. For gramicidin perforated-patch experiments, pipettes contained (in mM): 140 KCl and 10 HEPES, pH 7.4 KOH. […] Bath saline contained the following (in mM): 140 NaCl, 2.5 KCl, 2.5 CaCl2, 2.5 MgCl2, 10 HEPES, and 11 glucose, pH 7.4 NaOH (Kontou et al., 2021, supra). All compound solutions were applied to cells using a three-barreled 700 μm pipe positioned just above the cell (Warner Instruments). […] 10 mV voltage-ramp protocols over 1-s periods were used to determine the reversal potentials of the leak-subtracted muscimol-activated GABAAR currents. All voltages from whole-cell experiments were corrected offline using a calculated liquid junction potential value (13.6 mV) in Clampex (Molecular Devices). For gramicidin perforated-patch experiments, intracellular Cl^− values were back-calculated using measured EGABA values and the Nernst equation: […]
Measurements were performed in the presence of bumetanide […] and tetrodotoxin (TTX; 300 nM) to limit the contributions of NKCC1 and activity dependent shifts in chloride levels, respectively (Lee et al., 2011, supra).

## C[C@@H]1CN(c2nc3c(c(Nc4ccc(C5CCCCC5)cc4)n2)COC3)CCO1 [Compound A, (R)—N-(4-cyclohexylphenyl)-2-(2-methylmorpholino)-5,7-dihydrofuro[3,4-d]pyrimidin-4-amine]
300 nM group, before treatment, bumetanide and TTX present
  EGABA at 0 min: −75±3.1 mV
300 nM, 15 min, bumetanide and TTX present
  EGABA at 15 min: −85.1±4.2 mV
300 nM, 15 min, from EGABA by Nernst equation
  reduction in Cl−: 2.2 ± 0.6 mM
